{"source": "patent US20250161312A1", "about": "“A METHOD FOR THE TREATMENT OF CHEMOTHERAPEUTIC DRUG-INDUCED NEPHROTOXICITY” (INSTITUT NATIONAL DE LA SANTÉ ET DE LA RECHERCHE MÉDICALE, priority 2022, published 2025)", "key": {"[1]": {"tested_on": "RPTEC/hTERT1 cells", "assay": "Catalase activity", "type": "cell-based, human", "conditions": "cisplatin 50 μM, KW6002 25 μM, 48 hours", "protocol": "Catalase activity was assessed using the Catalase Colorimetric Activity Kit (Thermo Fisher Scientific) according to the manufacturer's instructions."}, "[2]": {"tested_on": "C57BL6/J mice", "assay": "Acute cisplatin-induced kidney injury model", "type": "in vivo", "method": "Animal procedures were performed in 8 to 10 weeks old male C57B16/J mice (Janvier Labs). Mice were fed a laboratory standard diet with water and food ad libitum and were kept under constant environmental conditions with a 12-hour light-dark cycle. […] Three days after this single injection, animals were sacrificed by cervical dislocation (FIG. 1A).\nPrior sacrifice by cervical dislocation, retro-orbital blood samples were collected in heparinized tubes and centrifuged for 10 min at 2000 rpm at room temperature. Renal function was assessed by Blood urea nitrogen (BUN) measurement using a AU480 Chemistry Analyzer (Beckman Coulter). At the time of sacrifice, kidneys or LLC1 tumors were harvested and stored in either “RNA later” solution (Thermo Fisher), 4% neutral buffered formalin or snap-frozen in liquid nitrogen.\nFormalin-fixed and paraffin-embedded sections (3 μm thick) were stained with Hematoxylin and Eosin (Sigma Aldrich) or Periodic Acid-Schiff (Sigma-Aldrich). Slices were scored by a nephropathologist in a blinded manner. A kidney injury score grading scale from 0 to 5 was used to assess the severity of the injury as follow: 0=no lesions, 1=minimal injury characterized by occurrence of necrosis and debris; 2=mild injury with single cell necrosis, pyknotic cells, and apoptosis; 3=moderate injury characterized by tubular distension, vacuolation, and some cellular debris, 4=severe injury with occasional hyaline casts observed, patchy epithelial necrosis in all segments, loss of epithelial lining; and 5=very severe injury characterized by extensive tubular epithelial necrosis in all segments, loss of epithelial layer from many tubules widespread intraluminal cellular debris, and frequent hyaline casts particularly prominent in the medullary region (67).\nTotal RNA from kidney samples was extracted with phenol/chloroform and subsequently precipitated in isopropanol as described previously (71). Total RNA from cultured renal cells was extracted using RNeasy Mini kit (Qiagen) following manufacturer's recommendations.\nReverse transcription was performed on 1 μg of RNA using high-capacity cDNA reverse transcription kit (Thermo Fisher), according the manufacturer's recommendation. Real time PCR was performed on a StepOne device using Taqman Gene Expression Master Mix (Thermo Fisher), following manufacturer's recommendations. Expression levels of the following genes were evaluated using comparative CT method (2-deltaCT): Neutrophil Gelatinase Associated Lipocalin (NGAL, Assay IDs Hs00194353_ml and Mm01324470_m1), Kidney Injury Molecule-1 (KIM-1, Assay ID Hs00273334_ml and Mm00506686_m1), Tumor Necrosis Factor alpha (TNFα, Assay ID Hs00174128_m1 and Mm00443258_m1), Interleukin-6 (I16, Assay ID Hs00174131_m1 and Mm00446190_m1), Adora2A Receptor (A2AR, Assay ID Hs00169123_m1 and Mm00802075_m1), Bcl2 associated X (Bax, Assay ID Hs00180269_m1 and Mm00432051_m1), B cell lymphoma 2 (Bcl2, Assay ID Hs00608023_m1 and Mm00477631_m1), Copper transporter receptor 1 (CTR1, Assay ID Hs00741015_m1 and Mm00612987_m1), Organic cation transporter 2 (OCT2, Assay ID Hs00533907 m1 and Mm00457295_m1), ATPase 7A (ATP7A, Assay ID Hs00163707_m1 and Mm00437663_m1), ATPase 7B (ATP7B, Assay ID Hs00163739_m1 and Mm00599675_m1), Multidrug and toxin extrusion ½ (MATE1/2, Assay ID Hs00979028 m1/Hs00945652_m1 and Assay ID Mm00840361_m1/Mm02601002_m1), ATP Binding Cassette Subfamily C Member 2 (Abcc2, Assay ID Hs00166123_m1 and Mm00496899_m1) instructions. Transcript levels of PPIA (human Hs99999904_mland mouse sample Mm02342430_m1) were used as endogenous control."}, "[3]": {"tested_on": "RPTEC/hTERT cells", "assay": "Cell viability assay (CellTiter-Glo)", "type": "cell-based, human", "conditions": "cisplatin 50 μM, KW-6002 0.5-12.8 μM, 48 hours", "protocol": "Cells were cultured in DMEM/F12 medium (Dulbecco's modified Eagle's medium and Ham's F12 medium, Thermo Fisher) supplemented with 1% penicillin/streptomycin, 5 pmol/L triiodo-L-thyronine, 10 ng/ml recombinant human epidermal growth factor, 3.5 μg/mL ascorbic acid, 5.0 μg/mL human transferrin, 5.0 μg/mL insulin, 25 ng/mL prostaglandin E1, 25 ng/ml hydrocortisone, 8.65 ng/mL sodium selenite, 0.1 mg/mL G418 and 1.2 g/L sodium bicarbonate (Sigma). Lewis lung carcinoma mouse LLC1 cells were cultured in DMEM glutamax (Thermo Fisher) containing 10% fetal calf serum and 1% penicillin/streptomycin. Cells were cultured at 37° C. in a humidified atmosphere of 5% CO2.\nViability was assessed using the CellTiter-Glo® Luminescent Cell Viability Assay (Promega) according to manufacturer's recommendations."}, "[4]": {"tested_on": "mEERL tumors in C57B16/J mice", "assay": "mEERL in vivo tumor model (HPV+ squamous carcinoma)", "protocol": "FIG. 8. […] The arrow represents cisplatin and/or PBS injection. […] (E) Absolute tumor sizes in animals in the different groups.\nWe used a validated murine model of HPV+ oropharyngeal squamous cell carcinoma as previously described (noncommercial) (77). This model consists of oropharyngeal epithelial cells from C57Bl/6 male mice that stably express the HPV16 viral oncogenes E6 and E7, H-Ras, and luciferase (mEERL cells). mEERL cells were grown in a T75 flask until confluent, after which cells were trypsinized and harvested, washed 3 times with sterile PBS, and resuspended in 1 mL sterile PBS to the appropriate concentration. Mice were injected s.c. into the right flank with 20 μL solution containing either 1,000,000 mEERL cells or PBS (vehicle). The day of mEERL cell injection is indicated as day −14. Tumor volume was monitored using Vernier digital calipers."}, "[5]": {"tested_on": "tumor cell transcriptome", "assay": "Whole transcriptome analysis of LLC1 tumors", "type": "in vivo, mice", "protocol": "RNA-seq libraries (n=5-6/group) were generated from 500 ng of total RNA using Illumina® TruSeq® Stranded mRNA Library Prep Kit v2. Briefly, following purification with poly-T oligo attached magnetic beads, the mRNA was fragmented using divalent cations at 94° C. for 2 min. The cleaved RNA fragments were copied into first-strand cDNA using reverse transcriptase and random primers. […] Surplus PCR primers were further removed by purification using AMPure XP beads (Beckman Coulter), and the final cDNA libraries were checked for quality and quantified using capillary electrophoresis. Sequencing was performed on the Illumina® Genome Hiseq4000 as single-end 50 base reads following Illumina's instructions. Reads were mapped onto the mm 10 assembly of Mus musculus genome using STAR v2.5.3a (72). Only uniquely aligned reads were kept for further analyses. Quantification of gene expression was performed using HTSeq-count v0.6.1p1 (73) and gene annotations from Ensembl releases 90 and 102 and “union” mode. Read counts were normalized across libraries with the method proposed by Ander et al. (74). […]"}}}
{"smiles": "CCn1c(=O)c2c(nc(/C=C/c3ccc(OC)c(OC)c3)n2C)n(CC)c1=O", "note": "[KW-6002, 8-[(E)-2-(3,4-dimethoxyphenyl)vinyl]-1,3-diethyl-7-methyl-3,7-dihydro-1H-purine-2,6-dione]", "values": [{"measurement": "cisplatin-induced decrease in catalase activity", "setting": "[1]", "result": "normalized"}, {"measurement": "histological lesions (histological score of renal injury)", "setting": "[2]; A model, FIG. 2B", "result": "less severe histological lesions"}, {"measurement": "mRNA levels of I16, change vs. cisplatin", "setting": "[2]; A model, kidney", "result": "−73.8±5.3", "unit": "%"}, {"measurement": "mRNA levels of Tnfα, change", "setting": "[2]; A model, kidney", "result": "−36.0±4.3", "unit": "%"}, {"measurement": "reduction of KIM-1 expression vs. cisplatin", "setting": "[2]; A model, kidney mRNA", "result": "−95.2±0.7", "unit": "%"}, {"measurement": "reduction of NGAL expression vs. cisplatin", "setting": "[2]; A model, kidney mRNA", "result": "−55.5±5.9", "unit": "%"}, {"measurement": "reduction of BUN vs. cisplatin", "setting": "[2]; A model: cisplatin 10 mg/kg single i.p., KW-6002 3 mg/kg i.p. daily day-1 to day 2", "result": "−42.9±7.4", "unit": "%"}, {"measurement": "cisplatin-induced cell death", "setting": "[3]", "result": "reduced cisplatin-induced cell death in a concentration-dependent manner"}, {"measurement": "cisplatin-induced cell death", "setting": "[3]; listed as KW6002", "result": "concentration-dependently reduced cisplatin-induced cell death"}, {"measurement": "cisplatin-induced pain hypersensitivity (von Frey)", "setting": "[4]; FIG. 8D", "result": "alleviated cisplatin-induced pain hypersensitivity"}, {"measurement": "tumor control by cisplatin (tumor size)", "setting": "[4]; FIG. 8E", "result": "significantly potentiated tumor control by cisplatin"}, {"measurement": "indicators of renal toxicity (KIM-1) induced by cisplatin", "setting": "[4]; tumor-bearing mice, FIG. 8A", "result": "limited"}, {"measurement": "expression of Tnf induced by cisplatin", "setting": "[4]; tumor-bearing mice, FIG. 8B", "result": "limited"}, {"measurement": "expression of I16 induced by cisplatin", "setting": "[4]; tumor-bearing mice, FIG. 8C", "result": "limited"}, {"measurement": "selectively modulated genes that were downregulated", "setting": "[5]; among the 2497", "result": 1016, "unit": "genes"}, {"measurement": "genes selectively modulated by cisplatin/KW-6002 co-treatment vs. vehicle", "setting": "[5]; out of 3923", "result": 2497, "unit": "genes"}]}
